# Test results reported in US11066414B2, “Cot modulators and methods of use thereof” (Gilead Sciences, Inc., priority 2015, dated 2021).
# pEC50, pIC50: −log10 of the molar value. Read-outs that look alike come from different tables or passages of the source.
# Legend:
# Human Cot = Human Cot (Homo sapiens (Human), UniProt P41279); assay: High Throughput Cot Biochemical Assay; conditions: for IC50/EC50 [nM]: IC50 (Cot): first value of the cell IC50/EC50, recombinant human Cot catalytic domain, TR-FRET
# Human Cot, sequence (P41279 30-397): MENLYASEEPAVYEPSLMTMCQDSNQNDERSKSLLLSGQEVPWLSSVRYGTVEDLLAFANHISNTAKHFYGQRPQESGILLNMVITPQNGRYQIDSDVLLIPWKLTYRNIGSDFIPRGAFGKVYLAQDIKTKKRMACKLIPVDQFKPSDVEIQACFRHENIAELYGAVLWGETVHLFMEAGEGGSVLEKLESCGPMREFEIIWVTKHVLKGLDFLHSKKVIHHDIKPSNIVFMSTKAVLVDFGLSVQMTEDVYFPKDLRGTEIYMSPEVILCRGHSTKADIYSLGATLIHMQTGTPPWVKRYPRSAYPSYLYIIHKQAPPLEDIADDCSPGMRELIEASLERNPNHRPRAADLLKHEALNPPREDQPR
# EGFR = EGFR (Homo sapiens (Human), UniProt P00533); assay: High Throughput EGFR Biochemical Assay; conditions: Human EGFR cytoplasmic domain, TR-FRET
# EGFR, sequence (P00533 669-1210): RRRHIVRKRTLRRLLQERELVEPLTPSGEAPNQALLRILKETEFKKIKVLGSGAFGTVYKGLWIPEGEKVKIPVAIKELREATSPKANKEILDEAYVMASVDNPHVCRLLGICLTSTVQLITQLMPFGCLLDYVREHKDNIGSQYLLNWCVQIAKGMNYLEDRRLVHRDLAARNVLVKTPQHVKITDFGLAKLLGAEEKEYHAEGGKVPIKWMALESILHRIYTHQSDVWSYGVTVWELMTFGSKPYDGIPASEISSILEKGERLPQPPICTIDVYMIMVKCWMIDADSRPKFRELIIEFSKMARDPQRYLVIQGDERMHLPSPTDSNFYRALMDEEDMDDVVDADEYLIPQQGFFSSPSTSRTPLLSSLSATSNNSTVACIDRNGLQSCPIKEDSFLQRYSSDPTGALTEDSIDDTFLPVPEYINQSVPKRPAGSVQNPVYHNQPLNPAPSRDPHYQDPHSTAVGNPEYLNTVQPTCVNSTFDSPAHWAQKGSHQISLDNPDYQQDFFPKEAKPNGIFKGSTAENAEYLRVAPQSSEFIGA
# Method: Example 42: High Throughput EGFR Biochemical Assay
# EGFR activity was measured using KinEASE (Cisbio), a time-resolved fluorescence resonance energy transfer (TR-FRET) immunoassay. In this assay, EGFR-catalyzes the phosphorylation of a universal Tyrosine kinase peptide substrate labeled with XL665. Europium conjugated phosphor-tyrosine specific antibody binds the resulting phosphorylated peptide. Formation of phosphorylated peptide is quantified by TR-FRET with Europium as the donor and XL665 the acceptor. The assay was performed in two main steps. The first step is the kinase reaction step and the second step is the detection step with TR-FRET reagents. In brief, test compounds 1:3 serially diluted in DMSO were delivered into Corning white, low volume, non-binding 384 well plates using the Echo 550 acoustic liquid dispenser (Labcyte®). […] After 60 min of incubation at room temperature, 10 μL of Stop and Detect Solution (1:400 Europium Cryptate labeled anti-phosphorylated peptide antibody solution and 125 nM strepavidin-XL665 Tracer in a 50 mM Hepes pH 7.0 detection buffer containing sufficient EDTA) was added.
# TNFα = assay: Cot Monocyte TNFα Cell Based Assay; conditions: for pEC50: Homo sapiens, Monocyte; for IC50/EC50 [nM]: EC50 (TNFα): second value of the cell IC50/EC50, LPS-stimulated human monocytes, TNFα by TR-FRET
# [1] = IC50 HTRF, Cot HTRF (TR-FRET) biochemical assay
# [2] = read-out: EC50 TNF, LPS-stimulated human monocytes, TNFα
pIC50 (Human Cot; [1]),IC50/EC50 [nM]: IC50 (Cot) (Human Cot; 400 μM ATP) [nM],pIC50 (EGFR),pEC50 (TNFα; [2]),IC50/EC50 [nM]: EC50 (TNFα) (TNFα) [nM],"pIC50 (Human Cot; read-out: IC50 HTRF, Cot HTRF (TR-FRET) biochemical assay)","pIC50 (Human Cot; IC50 HTRF, Cot HTRF (TR-FRET KinEASE) biochemical assay, 400 μM ATP)","pEC50 (TNFα; read-out: EC50 TNF, LPS-stimulated human monocytes, TNFα TR-FRET)",Compound
9.00,1,5.40,7.34,46,–,–,–,"CCN1CCC(n2cc([C@@H](Nc3cc(Cl)c4ncc(C#N)c(Nc5ccc(F)c(Cl)c5)c4c3)c3cccnc3)nn2)CC1 [Example 362, (S)-8-chloro-4-((3-chloro-4-fluorophenyl)amino)-6-(((1-(1-ethylpiperidin-4-yl)-1H-1,2,3-triazol-4-yl)(pyridin-3-yl)methyl)amino)-quinoline-3-carbonitrile]"
–,3,< 5.00,6.99,102,8.52,–,–,"Cn1cc([C@@H](Nc2cc(Cl)c3ncc(C#N)c(Nc4ccc(F)c(Cl)c4)c3c2)c2cccnc2)nn1 [Example 406, (S)-8-chloro-4-((3-chloro-4-fluoro-phenyl)amino)-6-(((1-methyl-1H-1,2,3-triazol-4-yl)(pyridin-3-yl)-methyl)amino)quinoline-3-carbonitrile]"
–,–,–,–,–,–,8.70,7.74,"CC(C)(CNc1c(C#N)cnc2c(C#N)cc(N[C@H](c3cn(C45CC(C4)C5)nn3)c3cccc4ncccc34)cc12)C(F)(F)F [Example 897, (S)-6-(((1-(bicyclo[1.1.1]pentan-1-yl)-1H-1,2,3-triazol-4-yl)(quinolin-5-yl)methyl)amino)-4-((3,3,3-trifluoro-2,2-dimethylpropyl)amino)quinoline-3,8-dicarbonitrile]"
8.52,–,–,6.94,–,–,–,–,"Cc1nc(F)ccc1[C@H](Nc1cc(Cl)c2ncc(C#N)c(NCC(C)(C)C)c2c1)c1cn(C2(CO)COC2)nn1 [Example 648, (S)-8-chloro-6-(((6-fluoro-2-methylpyridin-3-yl)(1-(3-(hydroxymethyl)oxetan-3-yl)-1H-1,2,3-triazol-4-yl)methyl)amino)-4-(neopentylamino)quinoline-3-carbonitrile]"
8.10,–,–,5.97,–,–,–,–,"N#Cc1cnc2c(Cl)cc(N[C@@H](c3cccnc3)c3cn(CCF)nn3)cc2c1Nc1cnc(F)c(F)c1 [Example 189, (S)-8-chloro-4-((5,6-difluoropyridin-3-yl)amino)-6-(((1-(2-fluoroethyl)-1H-1,2,3-triazol-4-yl)(pyridin-3-yl)methyl)amino)quinoline-3-carbonitrile]"
8.70,–,–,7.35,–,–,–,–,"Cc1nc(F)ccc1[C@H](Nc1cc(C#N)c2ncc(C#N)c(NCC(C)(C)C)c2c1)c1cn(C2(CF)CC2)nn1 [Example 503, (S)-6-(((6-fluoro-2-methylpyridin-3-yl)(1-(1-(fluoromethyl)cyclopropyl)-1H-1,2,3-triazol-4-yl)methyl)amino)-4-(neopentylamino)quinoline-3,8-dicarbonitrile]"
9.00,–,–,7.29,–,–,–,–,"N#CCC[C@@H](Nc1c(C#N)cnc2c(Cl)cc(N[C@H](c3cn(C4CC4)nn3)c3cccc4c3CNC4)cc12)c1ccccc1 [Example 68, 8-chloro-4-(((R)-3-cyano-1-phenyl-propyl)amino)-6-(((S)-(1-cyclopropyl-1H-1,2,3-triazol-4-yl)(isoindolin-4-yl)methyl)amino)quinoline-3-carbonitrile]"
